Experiments:
[1] = molecular target: T1, FAP5-expressing HT1080-FAP cells (human FAP-transfected) (Homo sapiens, UniProt Q12884); assay: Confocal binding studies of FAP-targeting ligand on HT1080-FAP cells; type: cell-based
T1 construct: expressed in transfected cells; host or cells: HT1080
T1 sequence (Q12884 1-760): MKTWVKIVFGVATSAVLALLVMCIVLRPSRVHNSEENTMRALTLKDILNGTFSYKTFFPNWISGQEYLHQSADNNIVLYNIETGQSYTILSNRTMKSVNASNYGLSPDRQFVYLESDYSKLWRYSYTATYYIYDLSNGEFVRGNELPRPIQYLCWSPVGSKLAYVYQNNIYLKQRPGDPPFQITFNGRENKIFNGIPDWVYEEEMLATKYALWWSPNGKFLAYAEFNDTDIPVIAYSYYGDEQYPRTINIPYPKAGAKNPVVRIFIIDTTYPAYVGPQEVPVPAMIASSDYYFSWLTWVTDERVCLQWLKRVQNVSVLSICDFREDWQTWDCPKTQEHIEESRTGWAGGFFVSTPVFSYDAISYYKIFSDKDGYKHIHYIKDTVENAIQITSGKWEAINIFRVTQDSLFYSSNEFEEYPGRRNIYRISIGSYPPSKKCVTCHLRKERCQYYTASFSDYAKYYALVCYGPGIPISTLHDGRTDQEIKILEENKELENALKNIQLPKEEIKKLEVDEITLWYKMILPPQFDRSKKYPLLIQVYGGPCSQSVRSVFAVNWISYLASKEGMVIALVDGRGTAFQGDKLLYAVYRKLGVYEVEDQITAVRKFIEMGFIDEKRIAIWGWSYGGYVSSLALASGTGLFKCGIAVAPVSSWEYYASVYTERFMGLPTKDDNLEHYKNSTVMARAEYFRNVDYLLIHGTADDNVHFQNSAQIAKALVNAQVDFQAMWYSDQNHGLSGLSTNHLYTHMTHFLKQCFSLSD
Protocol: Method 1: HT1080-FAP cells ([…]) were seeded in 4-well confocal plates. The cells were allowed to grow as a monolayer over 24 h at 37° C. and were incubated with various concentrations of conjugate ranging from 3.0 nM (lowest) to 25 nM (highest) in 1% FBS in PBS for 1 h at 37° C. Cells were washed with 1% FBS (3×500 μL) and the cells were left in 500 μl of 1% FBS and images were acquired with confocal microscopy. Again, the PBS in cells was replaced with growth media and the cells were re-incubated at 37° C. for 8 to 48 h. Images acquired at different concentrations of the compound at 37° C. are shown in FIG. 3, at different time points are shown in FIG. 4, and with 100-fold excess of competition ligand are shown in FIG. 5.
Method 2: Human FAP-transfected HT1080-FAP cells were (100,000) were plated on 4-well confocal plates and incubated with different concentrations (50 nM, 25 nM, 12.5 nM, 6.25 nM, 3.125 nM and 1.65 nM) of the compound for 1 h at 37° C. The unbound fluorescence was removed by washing the cells 3× with medium, and cell-bound fluorescence was imaged using an Olympus confocal microscope. The experiment was done in triplicate.

[2] = molecular target: T2, FAP5 on HT1080-FAP (HT1080-hFAP) cells (Homo sapiens, UniProt Q12884); assay: Binding assay (cell-bound fluorescence, apparent Kd) on HT1080-FAP cells
T2 construct: expressed in transfected cells; host or cells: HT1080
T2 sequence (Q12884 1-760): T1 sequence (Q12884 1-760)
Protocol: Method 1: HT1080-FAP cells (200000 cells/well) were seeded in a 24-well plate. The cells were allowed to grow as a monolayer over 24 h and incubated with various concentrations of FAP-targeted rhodamine conjugate either in the presence or absence of excess competition ligand (ligand without dye). After incubating for 1 h at 4° C. the cells were washed 3× with PBS to remove unbound fluorescence. The cells were then dissolved in 1% SDS and the cell-bound fluorescence was measured using a Neo2 Plate Reader.
(§1) Method 2: 100,000 HT1080-hFAP and HT1080 cells were seeded in amine-coated 24-well plates to ensure cell adherence. Upon formation of a monolayer, cells were incubated with various concentrations of the compound in the presence or absence of excess of unlabeled ligand. After incubation for 1 h, the cells were washed 3× with medium to remove to unbound fluorescence and dissolved in 1% SDS. The cell-bound fluorescence was measured using a fluorescence spectrophotometer (NeO2 Plate reader) set with a λex=555 nm and λem=575 nm. Cell-bound fluorescence was plotted against various concentrations and the apparent Kd was determined by using one-site binding (hyperbola) curve fit in GraphPad prism7. The experiment was done in triplicate.

[3] = tested on: HT1080 cells that do not express FAP5; assay: Binding assay on HT1080 cells that do not express FAP5; design: species or system human; conditions: FIG. 8
Protocol: as §1

[4] = molecular target: T3, FAP (e.g., FAP5) on HEK-FAP cells (Homo sapiens, UniProt Q12884); assay: Displacement binding curves in HEK-FAP cells; conditions: displacement binding (FIGS. 21-22), read-out: affinity for cells that express FAP
T3 construct: expressed in transfected cells; host or cells: HEK
T3 sequence (Q12884 1-760): T1 sequence (Q12884 1-760)

CN(C)c1ccc2c(c1)OC1=CC(=[N+](C)C)C=CC1C2c1ccc(C(=O)NCCOCCOCCOCCOCCC(=O)NCCNC(=O)c2ccc(-c3cn(Cc4cccc5c4CN(C(=O)C[C@@H]4C[C@@H](C(=O)N6CC(F)(F)C[C@H]6C#N)NC4=O)C5)nn3)cc2)cc1C(=O)O (stereo partly drawn) [compound 1]
time remaining localized and internalized to FAP5-expressing cells ([1]; 12.5 nM, e.g., 1 hour, 8 hours, 24 hours, or more (FIG. 4)): at least 1 hour | localization to cells expressing FAP5 (confocal) ([1]; HT1080-FAP cells, 50 nM, 25 nM, 12.5 nM, and 6.5 nM (FIG. 3)): localizes to cells | Kd ([2]; cells expressing FAP5 (FIG. 7)): 5 to 15 nM | binding to HT1080 cells expressing FAP5 in the presence of an unlabelled FAP5 ligand ([2]; competitor e.g., compound 8, FIG. 8): does not bind | binding to HT1080 cells that do not express FAP5 [3]: does not bind | Kd [4]: 1 to 10 nM

CN(C)c1ccc2c(-c3ccc(C(=O)NCCNC(=O)c4cccc5c4CN(C(=O)C[C@@H]4C[C@@H](C(=O)N6CC(F)(F)C[C@H]6C#N)NC4=O)C5)cc3C(=O)[O-])c3ccc(=[N+](C)C)cc-3oc2c1 [compound 5]
Kd [4]: 1 to 10 nM

CN(C)c1ccc2c(-c3ccc(C(=O)NCCNC(=O)CCc4cccc5c4CN(C(=O)C[C@@H]4C[C@@H](C(=O)N6CC(F)(F)C[C@H]6C#N)NC4=O)C5)cc3C(=O)[O-])c3ccc(=[N+](C)C)cc-3oc2c1 [compound 6]
Kd [4]: 1 to 10 nM

N#C[C@@H]1C[C@H](F)CN1C(=O)[C@@H]1C[C@@H](CC(=O)N2Cc3cccc(Cn4cc(-c5ccc(C(=O)NCCNC(=O)CCC(=O)O)cc5)nn4)c3C2)C(=O)N1 [compound 21]
Kd [4]: 1 to 10 nM

— US20220409747A1, “FIBROBLAST ACTIVATION PROTEIN (FAP)-TARGETED IMAGING AND THERAPY OF CANCERS AND OTHER FIBROTIC AND INFLAMMATORY DISEASES” (Purdue Research Foundation, priority 2019, published 2022)
